For 39 molecules, Ki results are on record in patent publication US8846719B2, “Isoxazolo-pyridine derivatives” (Roche Palo Alto LLC, priority 2007, dated 2014).

This test has as its target human GABA A receptor α5β3γ2 (Homo sapiens (Human), UniProt P18507+P31644). The experiment in a line: [3H]flumazenil competition binding assay, human GABA A α5β3γ2 receptors expressed in HEK293 cells. The settings on record: human receptor; displacement of [3H]flumazenil (0.5 nM); means of two determinations; read-out: hKi GABAAa5. Put shortly:
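Ki values, each the mean of two runs, derive from displacement of [3H]flumazenil from human α5β3γ2 GABA A receptors transiently expressed in HEK293 membranes. Binding ran 1 h at 4° C in Krebs-tris, pH 7.5, before filter harvest and scintillation counting.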
Consider `Cc1onc(-c2ccccc2)c1COc1ccc(C(=O)NCCNC(=O)OC(C)(C)C)cn1` [Example 217, (2-{[6-(5-Methyl-3-phenyl-isoxazol-4-ylmethoxy)-pyridine-3-carbonyl]-amino}-ethyl)-carbamic acid tert-butyl ester], for which the Ki is 8.4 nM.
Regarding `Cc1onc(-c2ccccc2)c1COc1ccc(C(=O)NCC(O)CO)cn1` (stereo not drawn) [Example 218, N-(2,3-Dihydroxy-propyl)-6-(5-methyl-3-phenyl-isoxazol-4-ylmethoxy)-nicotinamide], the Ki is 2 nM.
Next, `Cc1onc(-c2ccccc2)c1COc1ccc(C(=O)NCCCO)cn1` [Example 219, N-(3-Hydroxy-propyl)-6-(5-methyl-3-phenyl-isoxazol-4-ylmethoxy)-nicotinamide]: 2.2 nM; `Cc1onc(-c2ccccc2)c1COc1ccc(C(=O)NCCCCO)cn1` [Example 220, N-(4-Hydroxy-butyl)-6-(5-methyl-3-phenyl-isoxazol-4-ylmethoxy)-nicotinamide]: 2.6 nM; `Cc1onc(-c2ccccc2)c1COc1ccc(C(=O)NCCCCCO)cn1` [Example 221, N-(5-Hydroxy-pentyl)-6-(5-methyl-3-phenyl-isoxazol-4-ylmethoxy)-nicotinamide]: 4.1 nM.
For the molecule `Cc1onc(-c2ccccc2)c1COc1ccc(C(=O)NCCCCCCO)cn1` [Example 222, N-(6-Hydroxy-hexyl)-6-(5-methyl-3-phenyl-isoxazol-4-ylmethoxy)-nicotinamide], the Ki came to 8.2 nM.
As to `Cc1onc(-c2ccccc2)c1COc1ccc(C(=O)N2CCC(O)C2)cn1` (stereo not drawn) [Example 223, (3-Hydroxy-pyrrolidin-1-yl)-[6-(5-methyl-3-phenyl-isoxazol-4-ylmethoxy)-pyridin-3-yl]-methanone], the Ki came to 26.1 nM.
In the case of `Cc1onc(-c2ccccc2)c1COc1ccc(C(=O)N2CCC[C@H]2CO)cn1` [Example 224], the Ki is 41.9 nM.
The figure for `Cc1onc(-c2ccccc2)c1COc1ccc(C(=O)N2CCC[C@@H]2CO)cn1` [Example 225] is 20.2 nM.
The figure for `Cc1onc(-c2ccccc2)c1COc1ccc(C(=O)NC2CC(OCc3ccccc3)C2)cn1` (stereo not drawn) [Example 226, N-(3-Benzyloxy-cyclobutyl)-6-(5-methyl-3-phenyl-isoxazol-4-ylmethoxy)-nicotinamide] is 2.6 nM; for `Cc1onc(-c2ccccc2)c1COc1ccc(C(=O)N2CCCC2C)cn1` (stereo not drawn) [Example 227, [6-(5-Methyl-3-phenyl-isoxazol-4-ylmethoxy)-pyridin-3-yl]-(2-methyl-pyrrolidin-1-yl)-methanone] it is 48 nM; for `Cc1onc(-c2ccccc2)c1COc1ccc(C(=O)N2CCCC2)cn1` [Example 228, [6-(5-Methyl-3-phenyl-isoxazol-4-ylmethoxy)-pyridin-3-yl]-pyrrolidin-1-yl-methanone] it is 37.1 nM.
In the case of `COC(=O)[C@H](Cc1ccccc1)NC(=O)c1ccc(OCc2c(-c3ccccc3)noc2C)nc1` [Example 229, (S)-2-{[6-(5-Methyl-3-phenyl-isoxazol-4-ylmethoxy)-pyridine-3-carbonyl]-amino}-3-phenyl-propionic acid methyl ester], the Ki was determined as 47.7 nM.
Next, `Cc1onc(-c2ccccc2)c1COc1ccc(C(=O)NC2CC(OCc3ccccc3)C2)cn1` (stereo not drawn) [Example 230, (cis or trans)-N-(3-Benzyloxy-cyclobutyl)-6-(5-methyl-3-phenyl-isoxazol-4-ylmethoxy)-nicotinamide]: 1.2 nM; `Cc1onc(-c2ccccc2)c1COc1ccc(C(=O)N[C@@H](Cc2ccccc2)C(=O)O)cn1` [Example 231, (S)-2-{[6-(5-Methyl-3-phenyl-isoxazol-4-ylmethoxy)-pyridine-3-carbonyl]-amino}-3-phenyl-propionic acid]: 28 nM.
Next, `Cc1onc(-c2ccccc2)c1COc1ccc(C(=O)NC2(C)COC2)cn1` [Example 232, N-(3-Methyl-oxetan-3-yl)-6-(5-methyl-3-phenyl-isoxazol-4-ylmethoxy)-nicotinamide]: 1.4 nM; `CCCCS(=O)(=O)NC(=O)c1ccc(OCc2c(-c3ccccc3)noc2C)nc1` [Example 233, Butane-1-sulfonic acid [6-(5-methyl-3-phenyl-isoxazol-4-ylmethoxy)-pyridine-3-carbonyl]-amide]: 32.2 nM; `Cc1onc(-c2ccccc2)c1COc1ccc(C(=O)NC(C)C(F)(F)F)cn1` (stereo not drawn) [Example 234, 6-(5-Methyl-3-phenyl-isoxazol-4-ylmethoxy)-N-(2,2,2-trifluoro-1-methyl-ethyl)-nicotinamide]: 0.6 nM.
With `Cc1onc(-c2ccccc2)c1COc1ccc(C(=O)N[C@@H](C)C(F)(F)F)cn1` [Example 235, 6-(5-Methyl-3-phenyl-isoxazol-4-ylmethoxy)-N—((S)-2,2,2-trifluoro-1-methyl-ethyl)-nicotinamide], the Ki is 1.9 nM.
On to `Cc1onc(-c2ccccc2)c1COc1ccc(C(=O)N(C)S(=O)(=O)C2CC2)cn1` [Example 236, Cyclopropanesulfonic acid methyl-[6-(5-methyl-3-phenyl-isoxazol-4-ylmethoxy)-pyridine-3-carbonyl]-amide], for which the Ki is 36.7 nM.
Turning to `Cc1onc(-c2ccccc2)c1COc1ccc(C(=O)Nc2cnn(C)c2)cn1` [Example 237, 6-(5-Methyl-3-phenyl-isoxazol-4-ylmethoxy)-N-(1-methyl-1H-pyrazol-4-yl)-nicotinamide], the Ki came to 1.1 nM.
On to `Cc1onc(-c2ccccc2)c1COc1ccc(C(=O)n2ccc(=O)[nH]2)cn1` [Example 238, 1-[6-(5-Methyl-3-phenyl-isoxazol-4-ylmethoxy)-pyridine-3-carbonyl]-1,2-dihydro-pyrazol-3-one], for which the Ki came out at 34.9 nM.
`Cc1onc(-c2ccccc2)c1COc1ccc(C(=O)NC2(C)CC2)cn1` [Example 239, N-(1-Methyl-cyclopropyl)-6-(5-methyl-3-phenyl-isoxazol-4-ylmethoxy)-nicotinamide]: the Ki is 3.6 nM.
Consider `Cc1onc(-c2ccccc2)c1COc1ccc(C(=O)N2CCC2)cn1` [Example 240, Azetidin-1-yl-[6-(5-methyl-3-phenyl-isoxazol-4-ylmethoxy)-pyridin-3-yl]-methanone], for which the Ki amounted to 13.9 nM.
In the case of `COC1CN(C(=O)c2ccc(OCc3c(-c4ccccc4)noc3C)nc2)C1` [Example 241, (3-Methoxy-azetidin-1-yl)-[6-(5-methyl-3-phenyl-isoxazol-4-ylmethoxy)-pyridin-3-yl]-methanone], the Ki turned out to be 16 nM.
For `Cc1onc(-c2ccccc2)c1COc1ccc(C(=O)N2CCSC2)cn1` [Example 242, [6-(5-Methyl-3-phenyl-isoxazol-4-ylmethoxy)-pyridin-3-yl]-thiazolidin-3-yl-methanone], the Ki was found to be 37.3 nM.
Take `Cc1onc(-c2ccccc2)c1COc1ccc(C(=O)NC2(C#N)CC2)cn1` [Example 243, N-(1-Cyano-cyclopropyl)-6-(5-methyl-3-phenyl-isoxazol-4-ylmethoxy)-nicotinamide]: the Ki amounted to 2.9 nM.
In the case of `Cc1onc(-c2ccccc2)c1COc1ccc(C(=O)Nc2ccn(C)n2)cn1` [Example 244, 6-(5-Methyl-3-phenyl-isoxazol-4-ylmethoxy)-N-(1-methyl-1H-pyrazol-3-yl)-nicotinamide], the Ki was determined as 5.1 nM.
With `Cc1noc(-c2ccc(OCc3c(-c4ccccc4)noc3C)nc2)n1` [Example 245, 5-(3-Methyl-[1,2,4]oxadiazol-5-yl)-2-(5-methyl-3-phenyl-isoxazol-4-ylmethoxy)-pyridine], the Ki is 3.3 nM.
Consider `Cc1nnc(-c2ccc(OCc3c(-c4ccccc4)noc3C)nc2)[nH]1` [Example 246, 2-(5-Methyl-3-phenyl-isoxazol-4-ylmethoxy)-5-(5-methyl-4H-[1,2,4]triazol-3-yl)-pyridine], for which the Ki was 1.1 nM.
For `CSc1ccc(OCc2c(-c3ccccc3)noc2C)nc1` [Example 247, 2-(5-Methyl-3-phenyl-isoxazol-4-ylmethoxy)-5-methylsulfanyl-pyridine], the Ki is 17.7 nM.
Next, `Cc1onc(-c2ccccc2)c1COc1ccc([S+](C)[O-])cn1` (stereo not drawn) [Example 248, 5-Methanesulfinyl-2-(5-methyl-3-phenyl-isoxazol-4-ylmethoxy)-pyridine]: 28.1 nM; `Cc1cccc(-c2noc(C)c2COc2ccc(C(=O)NC3CCOCC3)cn2)c1` [Example 249, 6-(5-Methyl-3-m-tolyl-isoxazol-4-ylmethoxy)-N-(tetrahydro-pyran-4-yl)-nicotinamide]: 3.2 nM; `Cc1cccc(-c2noc(C)c2COc2ccc(C(=O)NC(C)C)cn2)c1` [Example 250, N-Isopropyl-6-(5-methyl-3-m-tolyl-isoxazol-4-ylmethoxy)-nicotinamide]: 3.1 nM.
Regarding `Cc1ccc(-c2noc(C)c2COc2ccc(C(=O)NC3CCOCC3)cn2)cc1` [Example 251, 6-(5-Methyl-3-p-tolyl-isoxazol-4-ylmethoxy)-N-(tetrahydro-pyran-4-yl)-nicotinamide], the Ki was 0.9 nM.
Take `Cc1ccc(-c2noc(C)c2COc2ccc(C(=O)NC(C)C)cn2)cc1` [Example 252, N-Isopropyl-6-(5-methyl-3-p-tolyl-isoxazol-4-ylmethoxy)-nicotinamide]: the Ki stood at 1 nM.
For the molecule `Cc1ccc(-c2noc(C)c2COc2ccc(C(=O)NC(C)C)cn2)c(F)c1` [Example 253, 6-[3-(2-Fluoro-4-methyl-phenyl)-5-methyl-isoxazol-4-ylmethoxy]-N-isopropyl-nicotinamide], the Ki was determined as 0.8 nM.
In the case of `Cc1onc(-c2ccc(Cl)cc2)c1COc1ccc(C(=O)NC(C)(C)CO)cn1` [Example 254, 6-[3-(4-Chloro-phenyl)-5-methyl-isoxazol-4-ylmethoxy]-N-(2-hydroxy-1,1-dimethyl-ethyl)-nicotinamide], the Ki turned out to be 4.1 nM.
The figure for `Cc1onc(-c2ccc(Cl)cc2)c1COc1ccc(C(=O)Nc2cnn(C)c2)cn1` [Example 255, 6-[3-(4-Chloro-phenyl)-5-methyl-isoxazol-4-ylmethoxy]-N-(1-methyl-1H-pyrazol-4-yl)-nicotinamide] is 0.8 nM.
